Source: PMC8576438, “Identification and Functional Analysis of G Protein-Coupled Receptors in 20-Hydroxyecdysone Signaling From the Helicoverpa armigera Genome” (Frontiers in Cell and Developmental Biology, 2021)

Test system: T1, prolactin-releasing peptide receptor (PRRPR)
T1 construct: full ORF (XP_021184170.1) fused to GFP (PRRPR-GFP), in membranes of overexpressing HaEpi cells
Experiment: saturation binding to membranes of PRRPR-GFP-overexpressing HaEpi cells, bound […] quantified by enzyme immunoassay ([…]-EIA)
Set-up: species or system Helicoverpa armigera

In the case of `CC(C)(O)CC[C@@H](O)[C@](C)(O)[C@H]1CC[C@@]2(O)C3=CC(=O)[C@@H]4C[C@@H](O)[C@@H](O)C[C@]4(C)[C@H]3CC[C@]12C` [20E, 20-hydroxyecdysone], the Kd is reported as 12.8 ± 2.19 nM.
